Series [1] concerns homologous PCA (passive cutaneous anaphlaxis) of rats. The series can be described thus: Homologous PCA (passive cutaneous anaphylaxis) test of rats for 48 hours, oral (antiallergic activity). The series is classed as in vivo, Wistar male rats. Particulars: for minimal effective dose / responders at 1 mg/kg / responders at 10 mg/kg / responders at 100 mg/kg / responders at 0.1 mg/kg / responders at 0.01 mg/kg: Rattus norvegicus; for minimal effective dose: minimum dosage with positive case in at least one of three rats, read-out: MED (minimum effective dosage), PCA inhibition; for responders at 1 mg/kg / responders at 10 mg/kg / responders at 100 mg/kg / responders at 0.1 mg/kg / responders at 0.01 mg/kg: po, read-out: Number of positive zooids in one group of 3 zooids (converted); for responders at 1 mg/kg / responders at 10 mg/kg / responders at 100 mg/kg / responders at 0.1 mg/kg / responders at 0.01 mg/kg / Number of positive zooids in one group of 3 zooids: positive = inhibition rate 50% or higher; for responders at 10 mg/kg: dosage 10 mg/kg; for responders at 100 mg/kg: dosage 100 mg/kg; for responders at 0.01 mg/kg: dosage 0.01 mg/kg; for Number of positive zooids in one group of 3 zooids: listed as 31'. As to the method: Antiallergic activity was investigated by a homologous PCA (passive cutaneous anaphlaxis) of rats for 48 hours, where Wistar male rats having body weights of 180 to 220 g were used for sampling of antiserum and Wistar male rats having body weights of 120 to 140 g were used for the PCA test.
Anti-egg white albumin (EWA) rat serum was prepared according to Stotland and Share's method [Canad. J. Physiol. Pharmacol. 52, 1114 (1974)]. That is, 1 mg of EWA was mixed with 20 mg of aluminum hydroxide gel and 0.5 ml of mixed vaccine of pertussis, diphtheria and tetanus, and the mixture was subcutaneously administered in four portions into rat's footpad. After 14 days, blood was sampled from the carotid artery, and the serum was separated from the sampled blood, and preserved under freezing at -80° C. The potency of the antiserumin in the homologous PCA for 48 hours was 1:32.
Groups each consisting of 3 rats were used, and 0.05 ml of anti-EWA rat serum diluted with a physiological saline solution to 8 times as much was incutaneously injected each at two positions of depilated back to make the animals passively sensitised. After 47 hours, the compound of the present invention, or its solution (physiological saline solution or CMC solution) was orally administered. One hour thereafter, 0.5 ml/100 g of 1% Evan's blue physiological saline solution containing 2 mg of the antigen EWA was administered into the tail vein, and 30 minutes thereafter, the animals were sacrificed by exsanguination. Then, the skins were stripped and the amount of leaked pigment at the blue-dyed parts was measured according to the Katayama et al method [Microbiol. Immunol. 22, 89 (1978)]. That is, the blue-dyed parts were cut out by scissors, and placed in test tubes containing 1 ml of 1N KOH and incubated at 37° C. for 24 hours. Then, 9 ml of a mixture of 0.6N phosphoric acid and acetone (5:13) was added thereto, and the mixture was shaked and centrifuged at 2,500 rpm for 10 minutes. Absorbancy of the supernatant at […] was measured, and the amount of leaked pigment was quantitatively determined by the calibration curve prepared in advance. An average of measurements at the two position was made a value for one zooid, and inhibition rate for the individual zooid was calculated by the following formula: [formula]

For a further series, the system named is dd, male mice. The series is classed as in vivo. Here is the method: Groups each consisting of 3 dd, male mice having body weights of 20±1 g were used, and the compound of the present invention was administered orally (po: 300 mg/kg) or intraperitoneally (ip: 100 mg/kg).
[2] abbreviates: mice, mortality 7 days after administration.

Structures are written as SMILES. Where two headings read alike, the source gives them in different places.

For the compound `CCN(CC)CCN=C1c2ccccc2COc2ccc(C(=O)O)cc21` [Compound 35, 11-(2-Diethylaminoethyl)imino-6,11-dihydrodibenz[b,e]oxepin-2-carboxylic acid], in series [1], the minimal effective dose is 10 mg/kg, the responders at 10 mg/kg is 33.3% and the responders at 100 mg/kg was 100%. Further, the responders at 1 mg/kg in series [1] (dosage 1 mg/kg) is 0%. Also, in the series with dd, male mice (setting [2]), the “Acute toxicity (MLD), ip” value was above 100 mg/kg and the “Acute toxicity (MLD), po” value is given as above 300 mg/kg.
Regarding `CN1CCN(C/C=C2\c3ccccc3COc3ccc(C(=O)O)cc32)CC1` [Compound 11, 11-[2-(4-Methylpiperazino)ethylidene]-6,11-dihydrodibenz[b,e]oxepin-2-carboxylic acid], in series [1], the minimal effective dose came to 10 mg/kg, the responders at 10 mg/kg is 33.3% and the responders at 100 mg/kg was 66.7%. Further, the responders at 0.1 mg/kg in series [1] (dosage 0.1 mg/kg) is 0%. Also, the responders at 1 mg/kg in series [1] (dosage 1 mg/kg) was 0%. Moreover, in the series with dd, male mice (mouse, in vivo, 10080 min), the “Acute toxicity (MLD), ip” value was above 100 mg/kg and the “Acute toxicity (MLD), po” value is above 300 mg/kg.
As for `CN(C)CC/C=C1\c2ccccc2COc2ccc(CCO)cc21` [Compound 31, 11-(3-Dimethylaminopropylidene)-2-(2-hydroxyethyl)-6,11-dihydrodibenz[b,e]oxepin], in series [1], the minimal effective dose was 0.1 mg/kg, the responders at 0.01 mg/kg is 0%, the responders at 10 mg/kg is 100% and the responders at 100 mg/kg is 100%. Moreover, the “Number of positive zooids in one group of 3 zooids” value in series [1] (dosage 0.1 mg/kg) was 1/3. For the same compound, the “Number of positive zooids in one group of 3 zooids” value in series [1] (dosage 1 mg/kg) was 3/3. Besides, in the series on dd, male mice (mouse, in vivo, 10080 min), the “Acute toxicity (MLD), ip” value is listed as above 100 mg/kg and the “Acute toxicity (MLD), po” value is above 300 mg/kg.
Consider `O=C(O)c1ccc2c(c1)C(=CCCN1CCCC1)c1ccccc1CO2` [Compound 7, 11-(3-Pyrrolidinopropylidene)-6,11-dihydrodibenz[b,e]oxepin-2-carboxylic acid], for which, in series [1], the minimal effective dose amounted to 1 mg/kg, the responders at 10 mg/kg was 66.7% and the responders at 100 mg/kg was 100%. In addition, in series [1] (dosage 0.1 mg/kg), the responders at 0.1 mg/kg was 0%. The responders at 1 mg/kg in series [1] (dosage 1 mg/kg) is 33.3%. Also, in the series with dd, male mice (setting [2]), the “Acute toxicity (MLD), ip” value was above 100 mg/kg and the “Acute toxicity (MLD), po” value is above 300 mg/kg.
Regarding `CN(C)CCCC=C1c2ccccc2COc2ccc(C(=O)O)cc21` [Compound 9, 11-(4-Dimethylaminobutylidene)-6,11-dihydrodibenz[b,e]oxepin-2-carboxylic acid], in series [1], the minimal effective dose was 1 mg/kg, the responders at 0.01 mg/kg is 0%, the responders at 10 mg/kg was 100% and the responders at 100 mg/kg was 100%. Moreover, the responders at 0.1 mg/kg in series [1] (dosage 0.1 mg/kg) was 0%. Moreover, the responders at 1 mg/kg in series [1] (dosage 1 mg/kg) is 66.7%. For the same compound, in the series on dd, male mice (setting [2]), the “Acute toxicity (MLD), ip” value is above 100 mg/kg and the “Acute toxicity (MLD), po” value is above 300 mg/kg.
As for `O=C(O)c1ccc2c(c1)C(=CCCN1CCOCC1)c1ccccc1CO2` [Compound 56, 11-(3-Morpholinopropylidene)-6,11-dihydrodibenz[b,e]-oxepin-2-carboxylic acid], in series [1], the minimal effective dose came out at 0.1 mg/kg, the responders at 0.01 mg/kg was 0%, the responders at 10 mg/kg was 100% and the responders at 100 mg/kg is 100%. Further, the responders at 0.1 mg/kg in series [1] (dosage 0.1 mg/kg) was 33.3%. The responders at 1 mg/kg in series [1] (dosage 1 mg/kg) is 100%. In the series on dd, male mice (setting [2]), the “Acute toxicity (MLD), ip” value is listed as above 100 mg/kg and the “Acute toxicity (MLD), po” value is given as above 300 mg/kg.
In the case of `CN(C)CCCC=C1c2ccccc2COc2ccc(CC(=O)O)cc21` [Compound 22, 11-(4-Dimethylaminobutylidene)-6,11-dihydrodibenz[b,e]oxepin-2-acetic acid], in series [1], the minimal effective dose is 0.1 mg/kg, the responders at 0.01 mg/kg was 0%, the responders at 10 mg/kg is 100% and the responders at 100 mg/kg is 100%. In addition, the responders at 0.1 mg/kg in series [1] (dosage 0.1 mg/kg) was 33.3%. In addition, in series [1] (dosage 1 mg/kg), the responders at 1 mg/kg is 66.7%. Moreover, in the series on dd, male mice (setting [2]), the “Acute toxicity (MLD), ip” value was above 100 mg/kg and the “Acute toxicity (MLD), po” value is above 300 mg/kg.

The record behind these values is patent publication US5116863A, “Dibenz[b,e]oxepin derivative and pharmaceutical compositions thereof” (Kyowa Hakko Kogyo Co., Ltd., priority 1986, dated 1992).
